Several values for one entry are separate records, joined by “and”; a condition that tells them apart may be missing. Equal values may be shown once. Activity calls are given as the source filed them.
Tests used:
[1] = biological target: T1, Tyrosine-protein phosphatase non-receptor type 7 (Homo sapiens, UniProt P35236); assay type: functional
T1 sequence (P35236 whole entry): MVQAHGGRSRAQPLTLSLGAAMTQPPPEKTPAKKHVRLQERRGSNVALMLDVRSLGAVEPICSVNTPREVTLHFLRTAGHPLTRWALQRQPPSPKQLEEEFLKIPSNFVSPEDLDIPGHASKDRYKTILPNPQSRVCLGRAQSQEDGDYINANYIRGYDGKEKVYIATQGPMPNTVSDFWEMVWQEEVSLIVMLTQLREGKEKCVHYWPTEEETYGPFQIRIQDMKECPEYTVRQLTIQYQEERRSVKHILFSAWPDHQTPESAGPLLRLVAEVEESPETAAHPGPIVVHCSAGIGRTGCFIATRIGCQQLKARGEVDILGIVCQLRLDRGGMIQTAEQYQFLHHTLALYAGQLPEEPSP

[2] = biological target: Glyceraldehyde-3-phosphate dehydrogenase (Homo sapiens, UniProt P04406)
Chain of Glyceraldehyde-3-phosphate dehydrogenase (P04406 whole entry): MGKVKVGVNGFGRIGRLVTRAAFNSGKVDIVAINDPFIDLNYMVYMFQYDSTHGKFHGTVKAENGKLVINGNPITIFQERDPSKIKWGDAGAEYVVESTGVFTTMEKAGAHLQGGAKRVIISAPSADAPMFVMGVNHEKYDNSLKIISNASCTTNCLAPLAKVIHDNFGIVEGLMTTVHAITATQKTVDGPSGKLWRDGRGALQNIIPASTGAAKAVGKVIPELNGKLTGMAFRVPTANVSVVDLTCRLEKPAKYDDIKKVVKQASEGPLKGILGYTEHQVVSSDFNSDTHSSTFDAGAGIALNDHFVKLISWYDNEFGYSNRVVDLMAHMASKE

[3] = biological target: T2, Dual specificity protein phosphatase 6 (Rattus norvegicus, UniProt Q64346)
T2 sequence (Q64346 whole entry): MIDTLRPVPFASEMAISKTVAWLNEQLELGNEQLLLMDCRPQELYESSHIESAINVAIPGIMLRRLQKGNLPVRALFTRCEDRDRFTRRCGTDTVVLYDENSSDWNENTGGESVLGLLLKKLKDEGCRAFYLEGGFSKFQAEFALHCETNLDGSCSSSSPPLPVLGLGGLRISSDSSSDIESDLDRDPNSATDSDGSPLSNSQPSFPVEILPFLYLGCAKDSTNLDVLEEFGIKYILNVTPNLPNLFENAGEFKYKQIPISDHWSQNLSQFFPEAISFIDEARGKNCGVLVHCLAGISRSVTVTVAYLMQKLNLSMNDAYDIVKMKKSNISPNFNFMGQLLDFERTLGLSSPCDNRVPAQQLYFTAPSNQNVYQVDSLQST

[4] = biological target: T2, Dual specificity protein phosphatase 6; assay type: functional
[5] = biological target: T3, Delta-type opioid receptor (Homo sapiens, UniProt P41143); test: HTS Image-Based Screen for Antagonists of the DOR Receptor. [Related pubchem assays (depositor defined):AID1777, AID1785, AID1786, AID2133]; assay type: functional
T3 sequence (P41143 whole entry): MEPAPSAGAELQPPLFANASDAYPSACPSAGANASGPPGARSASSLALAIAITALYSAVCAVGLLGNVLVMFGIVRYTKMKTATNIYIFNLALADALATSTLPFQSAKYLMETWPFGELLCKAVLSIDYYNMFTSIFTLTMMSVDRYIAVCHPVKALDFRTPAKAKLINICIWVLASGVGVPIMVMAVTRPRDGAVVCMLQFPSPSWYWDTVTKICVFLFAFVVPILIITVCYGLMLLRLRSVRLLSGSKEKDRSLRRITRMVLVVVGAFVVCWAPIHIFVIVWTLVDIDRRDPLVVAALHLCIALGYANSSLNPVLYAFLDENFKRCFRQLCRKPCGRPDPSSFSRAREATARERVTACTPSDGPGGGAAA

Mu-type opioid receptor = Mu-type opioid receptor (Homo sapiens, UniProt P35372); test: HTS Image-Based Screen for Agonists of the MOR Receptor. [Related pubchem assays (depositor defined):AID1777, AID1785, AID1786, AID2133]; assay type: functional;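 further: imaging of beta-arrestin GFP recruitment into spots after receptor activation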
Chain of Mu-type opioid receptor (P35372 whole entry): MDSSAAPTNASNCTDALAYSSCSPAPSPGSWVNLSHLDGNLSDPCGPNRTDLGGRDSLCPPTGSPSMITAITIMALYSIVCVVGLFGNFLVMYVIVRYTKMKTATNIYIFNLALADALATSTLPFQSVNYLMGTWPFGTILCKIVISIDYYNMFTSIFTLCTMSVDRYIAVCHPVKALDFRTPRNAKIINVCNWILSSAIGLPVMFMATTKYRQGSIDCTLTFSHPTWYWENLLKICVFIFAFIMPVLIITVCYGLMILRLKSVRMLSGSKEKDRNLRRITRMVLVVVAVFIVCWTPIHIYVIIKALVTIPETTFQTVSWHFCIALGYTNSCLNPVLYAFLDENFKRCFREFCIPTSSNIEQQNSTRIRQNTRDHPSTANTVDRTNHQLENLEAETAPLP

[6] = biological target: T3, Delta-type opioid receptor; test: HTS Image-Based Screen for Agonists of the DOR Receptor. [Related pubchem assays (depositor defined):AID1777, AID1786, AID2133]; assay type: functional
Estrogen receptor = Estrogen receptor (Homo sapiens, UniProt P03372);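 further: potency for inhibiting coactivator peptide recruitment to the receptor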
Chain of Estrogen receptor (P03372 whole entry): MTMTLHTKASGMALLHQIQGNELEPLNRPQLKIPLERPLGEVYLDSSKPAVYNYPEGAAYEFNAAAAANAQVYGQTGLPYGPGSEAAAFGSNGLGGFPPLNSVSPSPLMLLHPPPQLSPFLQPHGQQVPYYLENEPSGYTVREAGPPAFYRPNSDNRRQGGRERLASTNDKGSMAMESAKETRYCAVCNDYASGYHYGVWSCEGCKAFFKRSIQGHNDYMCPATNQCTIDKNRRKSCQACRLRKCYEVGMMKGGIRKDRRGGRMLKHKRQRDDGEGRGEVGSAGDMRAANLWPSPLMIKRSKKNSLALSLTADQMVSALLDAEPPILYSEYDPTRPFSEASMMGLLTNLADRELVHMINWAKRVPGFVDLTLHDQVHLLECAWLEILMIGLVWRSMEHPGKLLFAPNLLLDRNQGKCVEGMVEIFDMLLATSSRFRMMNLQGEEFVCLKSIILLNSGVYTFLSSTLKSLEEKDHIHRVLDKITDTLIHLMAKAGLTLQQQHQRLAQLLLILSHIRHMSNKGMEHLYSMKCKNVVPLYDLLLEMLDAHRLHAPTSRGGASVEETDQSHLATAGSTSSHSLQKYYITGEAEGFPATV

Estrogen receptor beta [7] = biological target: T4, Estrogen receptor beta (Homo sapiens, UniProt Q92731);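 further: recombinant ER-beta bound to coactivator SRC1 peptide in presence of estradiol agonist; inhibitors block coactivator peptide binding and lower the FRET signal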
T4 sequence (Q92731 whole entry): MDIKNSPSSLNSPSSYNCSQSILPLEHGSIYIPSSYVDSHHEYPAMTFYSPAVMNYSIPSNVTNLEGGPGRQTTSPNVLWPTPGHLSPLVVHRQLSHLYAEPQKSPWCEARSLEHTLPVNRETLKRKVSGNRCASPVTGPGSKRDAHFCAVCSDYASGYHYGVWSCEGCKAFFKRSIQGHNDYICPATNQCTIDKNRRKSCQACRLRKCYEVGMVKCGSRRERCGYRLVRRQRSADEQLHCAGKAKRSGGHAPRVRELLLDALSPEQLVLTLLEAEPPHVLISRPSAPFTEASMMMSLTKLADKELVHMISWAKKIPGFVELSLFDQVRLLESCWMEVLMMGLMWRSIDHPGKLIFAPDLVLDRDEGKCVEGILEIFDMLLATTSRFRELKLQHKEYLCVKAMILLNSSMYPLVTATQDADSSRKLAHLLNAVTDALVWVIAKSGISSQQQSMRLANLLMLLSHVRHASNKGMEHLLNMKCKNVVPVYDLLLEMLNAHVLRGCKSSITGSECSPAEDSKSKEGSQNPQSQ

Estrogen receptor beta [8] = biological target: T4, Estrogen receptor beta; test: blockers of SRC-3 recruitment to ERβ – biochemical, ELISA, streptavidin-HRP readout, orthogonal assay, confirmation (AID 1060)
[9] = biological target: T5, Kappa-type opioid receptor (Homo sapiens, UniProt P41145); assay type: functional
T5 sequence (P41145 whole entry): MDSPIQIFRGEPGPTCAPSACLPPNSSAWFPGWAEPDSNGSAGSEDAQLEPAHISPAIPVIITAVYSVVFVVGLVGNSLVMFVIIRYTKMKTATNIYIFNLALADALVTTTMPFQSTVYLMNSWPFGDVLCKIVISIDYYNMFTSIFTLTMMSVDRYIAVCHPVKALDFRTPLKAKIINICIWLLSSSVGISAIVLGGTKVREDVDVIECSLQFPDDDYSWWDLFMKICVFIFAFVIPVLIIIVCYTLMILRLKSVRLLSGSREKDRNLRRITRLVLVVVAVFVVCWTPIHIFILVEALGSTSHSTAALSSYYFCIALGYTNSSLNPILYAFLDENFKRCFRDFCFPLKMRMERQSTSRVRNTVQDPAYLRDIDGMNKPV

[10] = biological target: T5, Kappa-type opioid receptor; assay type: functional; remark: listed apart in the source
[11] = A Cell Based Secondary Assay To Explore Cytotoxicity of Compounds that Sensitize Mycobacterium Tuberculosis to Beta-Lactam Antibiotics.; assay type: functional
[12] = viability of PTEN-deleted HCT116 cells – cell-based, HCT116 PTEN knockout, dose response (AID 1047); assay type: functional;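 further: HCT116 colon tumor cells with PTEN knocked out; cells exposed to compound for 60 hours before readout; potency for loss of cell viability measured by luminescence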
[13] = viability of HCT116 lacking mutant beta-catenin – cell-based, human colon tumor, dose response (AID 1045); assay type: functional;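 further: HCT116 colon tumor cells with beta catenin knocked out; cells exposed to compound for 60 hours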
Caspase-3 = biological target: T6, Caspase-3 (Homo sapiens, UniProt P42574); test: activators of human procaspase-3 D3A mutant – biochemical, absorbance, PC-3 D3A mutant, counter-screen for dual procaspase-3/7 activator project, dose response (AID 504328)
T6 sequence (P42574 whole entry): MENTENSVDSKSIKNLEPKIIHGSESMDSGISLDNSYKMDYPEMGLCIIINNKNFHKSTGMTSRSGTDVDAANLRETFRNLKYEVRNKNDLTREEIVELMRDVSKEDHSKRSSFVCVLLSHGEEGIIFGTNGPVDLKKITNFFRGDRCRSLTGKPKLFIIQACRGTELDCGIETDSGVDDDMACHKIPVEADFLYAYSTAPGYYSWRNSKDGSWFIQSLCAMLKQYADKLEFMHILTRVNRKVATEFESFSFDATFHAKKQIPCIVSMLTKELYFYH

Caspase-7 = Caspase-7 (Homo sapiens, UniProt P55210); test: potency of procaspase-7 enzyme activation – biochemical, absorbance, human, dual procaspase-3/-7 activator project, dose response (AID 504330)
Bcl-2-like protein 10 = Bcl-2-like protein 10 (Homo sapiens, UniProt Q9HD36); test: Bcl-B/TR3 peptide binding disruption – biochemical, fluorescence polarization, FITC-TR3 peptide, selectivity assay for Bfl-1 inhibitor project, primary screen (AID 748);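 further: fluorescence polarization from a fluorescein-labelled TR3 peptide binding purified Bcl-B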
Chain of Bcl-2-like protein 10 (Q9HD36 whole entry): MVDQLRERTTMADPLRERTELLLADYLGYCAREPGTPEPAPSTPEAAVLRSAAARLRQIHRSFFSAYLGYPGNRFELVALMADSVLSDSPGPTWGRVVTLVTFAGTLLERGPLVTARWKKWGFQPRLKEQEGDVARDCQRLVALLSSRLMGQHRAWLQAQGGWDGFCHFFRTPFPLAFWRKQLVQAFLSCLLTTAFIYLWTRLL

[14] = biological target: Induced myeloid leukemia cell differentiation protein Mcl-1 (Homo sapiens, UniProt Q07820); assay type: functional
Chain of Induced myeloid leukemia cell differentiation protein Mcl-1 (Q07820 whole entry): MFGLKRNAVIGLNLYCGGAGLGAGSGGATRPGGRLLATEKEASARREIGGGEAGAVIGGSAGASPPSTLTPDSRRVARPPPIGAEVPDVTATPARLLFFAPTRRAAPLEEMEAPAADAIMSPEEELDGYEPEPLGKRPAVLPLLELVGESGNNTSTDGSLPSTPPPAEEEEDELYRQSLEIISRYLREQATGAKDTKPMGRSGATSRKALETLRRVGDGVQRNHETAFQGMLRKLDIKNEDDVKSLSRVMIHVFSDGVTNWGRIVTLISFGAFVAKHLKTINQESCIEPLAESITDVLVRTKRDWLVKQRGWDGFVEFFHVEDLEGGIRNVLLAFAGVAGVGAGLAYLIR

Coagulation factor XII = biological target: T7, Coagulation factor XII (Homo sapiens, UniProt P00748); assay type: functional;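 further: activated factor XIIa alpha cleaving a fluorogenic AMC peptide substrate; inhibitor potency from loss of enzyme activity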
T7 sequence (P00748 whole entry): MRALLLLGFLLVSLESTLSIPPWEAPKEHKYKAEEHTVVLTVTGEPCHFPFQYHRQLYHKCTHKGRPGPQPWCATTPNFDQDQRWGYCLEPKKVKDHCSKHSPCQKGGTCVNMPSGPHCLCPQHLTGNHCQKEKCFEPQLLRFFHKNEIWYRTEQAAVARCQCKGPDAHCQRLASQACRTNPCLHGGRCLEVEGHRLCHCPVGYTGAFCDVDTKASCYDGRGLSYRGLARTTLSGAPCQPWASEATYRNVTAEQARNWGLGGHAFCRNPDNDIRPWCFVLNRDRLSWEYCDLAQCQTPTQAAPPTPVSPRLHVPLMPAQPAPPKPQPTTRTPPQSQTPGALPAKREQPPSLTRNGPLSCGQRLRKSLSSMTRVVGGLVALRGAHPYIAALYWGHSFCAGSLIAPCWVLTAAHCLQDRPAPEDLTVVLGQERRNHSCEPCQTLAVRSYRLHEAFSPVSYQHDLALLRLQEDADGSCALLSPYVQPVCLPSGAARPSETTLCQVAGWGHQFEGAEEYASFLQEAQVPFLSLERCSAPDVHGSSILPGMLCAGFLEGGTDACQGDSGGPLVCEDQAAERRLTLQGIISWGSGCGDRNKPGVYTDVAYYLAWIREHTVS

[15] = biological target: T8, Carboxy-terminal domain RNA polymerase II polypeptide A small phosphatase 1 (Homo sapiens, UniProt Q9GZU7); test: CTDSP1 inhibitors, concentration-response, biochemical, absorbance readout, ultra-high-throughput screen actives (AID 540297); assay type: functional
T8 sequence (Q9GZU7 whole entry): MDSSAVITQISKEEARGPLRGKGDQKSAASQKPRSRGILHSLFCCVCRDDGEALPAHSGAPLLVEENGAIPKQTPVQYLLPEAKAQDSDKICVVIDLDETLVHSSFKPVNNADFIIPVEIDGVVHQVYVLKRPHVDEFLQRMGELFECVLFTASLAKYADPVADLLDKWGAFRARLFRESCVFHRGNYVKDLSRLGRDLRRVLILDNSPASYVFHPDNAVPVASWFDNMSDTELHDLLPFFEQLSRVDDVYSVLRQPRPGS

In the case of `Cc1ccc(CC(=O)Nc2cc(C)on2)cc1`, the IC50 [1] is reported as > 100 µM (not active), the IC50 [2] is reported as 93.8 µM (active) and the IC50 [3] is reported as > 100 µM (inactive). The IC50 [4] was > 100 µM (inactive).
With `N#Cc1ccc(-c2cccnc2)nc1SCC(=O)Nc1sc2c(c1C#N)CCC2` the IC50 [5] was > 32 µM (inactive), the EC50 (Mu-type opioid receptor) was > 32 µM (inactive) and the EC50 [6] was > 32 µM (inactive). For the same molecule, the IC50 (Estrogen receptor) was 15 µM (active), the IC50 (Estrogen receptor beta [7]) was > 50 µM (not active) and the IC50 (Estrogen receptor beta [8]) was 3.69 µM (not active) and 149 nM (not active). It also gave an EC50 [9] greater than 35 µM and an EC50 [10] of 16 µM.
In the case of `O=c1c(O)c(-c2ccc3c(c2)OCO3)oc2ccccc12`, the CC50 [11] is reported as > 40 µM (active), the EC50 [12] is reported as 41.7 µM (active) and the EC50 [13] is reported as 23.1 µM (active). The EC50 (Caspase-3) was > 85.3 µM (inactive) and the EC50 (Caspase-7) was > 85.3 µM (inactive).
In the case of `O=C(NCc1ccco1)c1c2c(nc3ccccc13)CCC2`, the IC50 (Bcl-2-like protein 10) is reported as 16.4 µM (active), the IC50 [14] is reported as 4.33 µM (active) and the IC50 (Coagulation factor XII) is reported as > 50 µM (inactive). For the same molecule, the IC50 [15] was 5.65 µM (active).

— ChEMBL document CHEMBL1201862, “PubChem BioAssay data set” (2004)
